Patent publication US6692927B2, “Bax degradation involvement in tumor survival and progression” (University of South Florida, priority 2000, dated 2004)
Where a SMILES comes first, the peptide text is derived from it. [ ]: non-standard residue; d: D form. The star is where a group is joined. Nle = CCCC[C@H](N)C(=O)O; Cbz = O=C(OCc1ccccc1)*

How the values were obtained:
[1] = system: human Jurkat T cells overexpressing Bcl-2 and human prostate, breast, tongue and brain tumor cell lines; details: cited from earlier work; for apoptosis induction / cell kill: low concentrations, same conditions for etoposide
[2] = system: simian virus 40-transformed and parental normal human fibroblasts; details: but not the parental normal; cited from earlier work
Bax degradation activity = assay: cell-free Bax degradation assay, inhibitor added to MCF-7 cell extract; format: biochemical, human; details: 10-minute preincubation of MCF-7 cell extract with inhibitor (100 mM per FIG. 9C legend), 37° C., 4 h
Method: (§1) FIGS. 9A-9F show Bax degradation depends on ubiquitination, proteasome and ATP. (FIG. 9A) Jurkat cells (0 h) were treated with either 50 μM LLnV or 10 μM lactacystin, followed by preparation of Bax immunoprecipitates (with clone 6A7), which were immunoblotted with an ubiquitin antibody. Positions of putative ubiquitinated Bax proteins (p47, p55) are indicated at left. The nature of the ˜30 kDa and ˜84 kDa remains unclear. (FIG. 9B) The [^35S]-labeled Bax (upper) or Bcl-2 (lower) protein (1 μl) were incubated at 37° C. for 2 h with either buffer Z only (lane 1) or […] protein extract of MCF-7 cells grown exponentially (lane 2) or pretreated for 8 h with […] LLnV (lane 3). (FIG. 9C) The [^35S]-labeled Bax protein (1 μl) was incubated with either buffer Z only (lane 1) or 100 μg MCF-7 cell lysate at 37° C. for 4 h, in the presence of an indicated inhibitor (100 mM; lanes 3-8) or an equal volume of DMSO (lane 2) in buffer Z. A weak band of ˜16 kDa (indicated by an arrow) is probably an intermediate product of proteasome-mediated Bax degradation. (FIG. 9D) The proteasome in MCF-7 whole cell lysate (W lys, lane 1) was precipitated by using either ultraspin (ULS) or a proteasome subunit a6 antibody (IP). Both supernatant (lanes 2, 4) and pellet (lanes 3, 5) fractions were examined by Western blot assay using antibody to the proteasome a6 subunit (MW 33 kDa). (FIG. 9E) Bax degradation assay was performed as in FIG. 9B, with addition of buffer Z (lane 1) or 100 μg protein from MCF-7 whole cell lysate (lane 2), ultraspun supernatant (lane 3) or plus the pellet (lane 4), immunodepleted supernatant (lane 5) or plus a purified 20S proteasome ([…]; lane 6), or the purified proteasome alone (2 μg; lane 7). (FIG. 9F) Bax degradation assay was performed as in FIG. 9B, in the absence (lane 3) or presence of 10 mM ATP (lane 2) or 10 mM ATP-y-S (lane 4).
In vitro Bax Degradation Assay: Human Bax-a cDNA subcloned into pcDNA3 was a gift from Dr. Hong-gang Wang. Human full length of bcl-2-a cDNA was cloned from Jurkat T cells and subcloned into pcDNA3.1(−) as described+. Both bax and bcl-2 plasmids were used for coupled in vitro transcription/translation (Promega; Madison, Wis.) in the presence of [^35S]methionine (Amersham Pharmacia Biotech; Piscataway, N.J.). Protein extracts were prepared from either MCF-7 cells or prostate tumor tissues in buffer Y (50 mM Tris-HCl, pH 7.4, 250 mM NaCl, 1% Triton X-100, 0.1% SDS, 1 mM EDTA), and used for Bax (or Bcl-2) degradation assay. Briefly, 1 microl of [^35S]-labeled Bax (or Bcl-2) protein was incubated at 37° C. for 2-4 hours with 100-200 microg protein extract in buffer Z (50 mM Tris-HCl, pH 7.4, 5 mM MgCl2, 3 mM DTT, 10 mM ATP, 10 mM phosphocreatine, 10 microg/ml creatine phosphokinase, 10 microg/ml aprotinin, 10 microg/ml leupeptin, 10% glycerol and 2 microg/ml ubiquitin). After incubation, the samples were subjected to gel electrophoresis and autoradiography. Under the cell-free assay conditions, the calpain-mediated Bax cleavage activity was blocked by omission of calcium and addition of the protease inhibitor leupeptin (Wood et al, 1998). To deplete the proteasome, MCF-7 cell lysates were either immunoprecipitated with the 20S proteasome subunit a6 antibody or ultracentrifugated at 100,000×g for 6 hours. The proteasome-enriched pellet fraction was resuspended in buffer Y.
To further study the proteasome activity that degrades Bax protein, a cell-free Bax degradation assay was developed by using an in vitro-translated, [^35S]-labeled Bax protein as substrate (FIG. 9B, upper, lane 1). The Bax degradation activity is present in protein extracts prepared from exponentially growing MCF-7 (FIG. 9), K562, VA-13, WI-38, Jurkat T or HL-60 cells. The labeled Bax was almost completely degraded by a MCF-7 cell extract after 2 to 4 hours incubation at 37° C. (FIG. 9B, upper, and FIG. 9C, lanes 2 vs. 1). […]

Jurkat T cells = assay: Western blot and Bax IP/ubiquitin blot in Jurkat T cells; format: cell-based, human; details: 50 microM
Method: FIGS. 8A-8D show proteasome inhibition accumulates Bax to mitochondria/cytoplasm and increases interaction between Bax and Bcl-2 proteins. Jurkat cells (0 h; FIG. 8A and FIG. 8B) or Jurkat cells overexpressing Bcl-2 (0 h; FIG. 8C and FIG. 8D) were treated by either 10 μM lactacystin (FIGS. 8A-8C), 50 μM LLnV (FIG. 8D), or 50 μM LLM (FIG. 8A and FIG. 8B) for the indicated hours. (FIG. 8A and FIG. 8B) Western blotting with antibodies to PARP and Bax were performed as described in FIG. 7. (FIG. 8C) Immunohistochemistry (see MATERIALS AND METHODS). Localization of Bax protein (green) and nuclei (red) are shown. (FIG. 8D) Bax immunoprecipitates, prepared by an agarose-conjugated N-20 Bax antibody, were immunoblotted first with the 6A7 Bax antibody (upper) and then reblotted with a Bcl-2 antibody (lower).
as §1, with “4). […]” for “4).”

normal WI-38 cells = assay: PARP cleavage, cytochrome c release, Bax and p21 in normal fibroblasts; format: cell-based, human; details: LLnL at up to 200 microM, 14 hours
Text: Proteasome inhibitors activate Bax- and cytochrome c-dependent apoptosis pathway preferentially in transformed human fibroblasts. Normal human fibroblasts are more resistant to proteasome inhibitor-induced apoptosis than transformed and cancer cells (An et al., in press). This is probably due to inability of the normal cells to accumulate Bax protein in response to proteasome inhibition, and consequently failure to release cytochrome c. To test this hypothesis, both SV40-transformed and normal WI-38 cells were treated with 50 microM LLnV for up to 24 hours, followed by measurement of PARP cleavage, cytochrome c release and Bax accumulation. […] In contrast, only after 24 hours treatment, low levels of p85/PARP fragment and cytosolic cytochrome c were detected in normal WI-38 cells (FIGS. 1, A, B, lanes 8-14). […] The levels of Bax/p21 were increased at as early as 4 hours and remained high afterwards. […] The level of another band of ˜47 kDa increased at 4 hours, further increased between 6 and 12 hours, and then decreased (FIG. 1C). The p70 and p47 bands can contain ubiquitinated forms of Bax since similar polypeptides were detected by antibodies to both Bax and ubiquitin (Li et al., 1999). […] Therefore, although unable to activate the Bax- and cytochrome c-dependent apoptotic pathway in response to a low concentration of a proteasome inhibitor, normal cells are capable of undergoing Bax- and cytochrome c-independent apoptosis in response to a proteasome inhibitor at higher concentrations.
SV40-transformed (VA-13) and normal WI-38 cells were treated with 50 microM LLnV or DMSO (letter D) for up to 24 hours, followed by measurement of PARP cleavage (A), cytochrome c release (B) and Bax accumulation (C; also see FIG. 2). Panel D, exponentially grown VA-13 cells were pretreated with 50 microM LLnV or DMSO for 1 hour, washed with methionine-free medium, and then incubated for 30 minutes in methionine-free medium plus 50 microM LLnV (or DMSO). This was followed by replacing fresh methionine-free medium containing 150 microCi/ml of [^35S]-methionine, 10% dialyzed FBS and 50 microM LLnV (or DMSO). Cells were further incubated for 6 hours, followed by preparation of [^35S]-labeled protein lysates and Bax immunoprecipitates (6A7, PharMingen). The labeled Bax bands are indicated. […] Bax-alpha subcloned into pcDNA3 was used for coupled in vitro transcription/translation in the presence of [^35S]methionine. For Bax cleavage assay, the whole cell extracts were prepared. The [^35S]-labeled Bax (0.7 microl) was incubated with 50 microg protein in assay buffer (containing 50 microM LLM and no Ca^2+) for 4 hours at 37° C. Following incubation, the samples were subjected to SDS gel electrophoresis and autoradiography.

Compound	Bax degradation process/activity (Bax degradation activity)	other results
CC(C)C[C@@H](C=O)NC(=O)[C@H](CCCN=C(N)N[N+](=O)[O-])NC(=O)C(CCCCCCCCN1C(=O)c2ccccc2C1=O)C1CCCC1 (some centres unmarked) [CEP1612]		cyclin-dependent kinase inhibitors p21 and p27 ([1]; associated with CEP1612-induced apoptosis): accumulation of the cyclin-dependent kinase inhibitors p21 and p27; apoptosis induction / cell kill [1]: rapidly induces apoptosis; p27 accumulation and apoptosis [2]: selectively accumulates p27 and induces apoptosis
CC(C)C[C@@H](C=O)NC(=O)[C@H](CC(C)C)NC(=O)[C@H](CC(C)C)NC(=O)OCc1ccccc1 [LLL] (Cbz-Leu-Leu-Leu-aldehyde)	blocked	
CSCCC(C=O)NC(=O)C(CC(C)C)NC(=O)C(CC(C)C)NC(C)=O (stereo not drawn) [LLM] (Ac-Leu-Leu-Met-aldehyde; configuration not given here)	not	Bax accumulation and PARP cleavage (Jurkat T cells): had no such effects
CCCC[C@@H](C=O)NC(=O)[C@H](CC(C)C)NC(=O)[C@H](CC(C)C)NC(C)=O [LLnL] (Ac-Leu-Leu-[Nle]-aldehyde)	blocked	apoptosis as judged by PARP cleavage (normal WI-38 cells): underwent apoptosis; cytochrome c release and Bax accumulation (normal WI-38 cells): neither release cytochrome c nor accumulate Bax; levels of the cdk inhibitor p21 (normal WI-38 cells): significantly increased
CCN1C(=O)C=CC1=O [N-ethylmaleimide]	not inhibited	
CC(=O)N[C@@H](CC(=O)O)C(=O)N[C@@H](CCC(=O)O)C(=O)N[C@H](C(=O)N[C@@H](CC(=O)O)C(=O)CF)C(C)C [acetyl-DEVD-fluoromethyl ketone]	not inhibited	
CC(=O)N[C@@H](Cc1ccc(O)cc1)C(=O)N[C@H](C(=O)N[C@@H](C)C(=O)N[C@@H](CC(=O)O)C(=O)CCl)C(C)C [acetyl-YVAD-chloromethyl ketone]	not inhibited	
CC(C)[C@H](O)[C@@]12NC(=O)[C@H](C)[C@@H]1OC2=O [b-lactone, clasto-lactacyctin b-lactone]	blocked	
N=C(N)c1ccccc1 [benzamidine]	not inhibited	
COc1cc([C@@H]2c3cc4c(cc3[C@@H](O[C@@H]3O[C@@H]5CO[C@@H](C)O[C@H]5[C@H](O)[C@H]3O)[C@H]3COC(=O)[C@H]23)OCO4)cc(OC)c1O [etoposide]		apoptosis induction / cell kill [1]: fails to kill these cells
CC(=O)N[C@@H](CC(C)C)C(=O)N[C@@H](CC(C)C)C(=O)N[C@H](C=O)CCCNC(=N)N [leupeptin]	not inhibited	
O=S(=O)(F)Cc1ccccc1 [phenylmethylsulfonyl fluoride]	not inhibited	
aprotinin	not inhibited	
tosyl-L-lysine chloromethyl ketone	not inhibited	
